From paper doi:10.1101/2021.09.30.462449v1 (biorxiv, 2021)

Columns and labels:
Test in all cases: biochemical
Conditions in all cases: read-out: % inhibition mean (Z'Lyte)
[1] = molecular target: AXL (Homo sapiens, UniProt P30530)
[2] = molecular target: BMX (Homo sapiens, UniProt P51813)
[3] = molecular target: CAMK2A (CaMKII alpha) (Homo sapiens, UniProt Q9UQM7)
[4] = molecular target: CDK1/cyclin B (Homo sapiens, UniProt P06493)
[5] = molecular target: CDK2/cyclin A (Homo sapiens, UniProt P24941)
[6] = molecular target: CLK1 (Homo sapiens, UniProt P49759)
[7] = molecular target: CSNK1G2 (CK1 gamma 2) (Homo sapiens, UniProt P78368)
Chain of CSNK1G2 (CK1 gamma 2) (P78368 whole entry): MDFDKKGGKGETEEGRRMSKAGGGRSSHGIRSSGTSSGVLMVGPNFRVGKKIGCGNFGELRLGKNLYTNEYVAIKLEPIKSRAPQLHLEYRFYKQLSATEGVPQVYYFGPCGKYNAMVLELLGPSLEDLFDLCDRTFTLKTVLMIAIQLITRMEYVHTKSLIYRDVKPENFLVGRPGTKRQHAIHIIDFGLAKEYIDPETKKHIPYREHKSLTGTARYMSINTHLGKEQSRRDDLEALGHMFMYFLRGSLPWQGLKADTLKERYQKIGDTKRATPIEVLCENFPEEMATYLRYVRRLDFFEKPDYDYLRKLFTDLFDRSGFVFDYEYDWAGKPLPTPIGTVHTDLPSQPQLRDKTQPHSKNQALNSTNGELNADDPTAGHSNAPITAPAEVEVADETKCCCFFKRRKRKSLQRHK

[8] = molecular target: DAPK3 (ZIPK) (Homo sapiens, UniProt O43293)
[9] = molecular target: EPHA8 (Homo sapiens, UniProt P29322)
[10] = molecular target: EPHB3 (Homo sapiens, UniProt P54753)
[11] = molecular target: ERBB2 (HER2) (Homo sapiens, UniProt P04626)
[12] = molecular target: FGR (Homo sapiens, UniProt P09769)
Chain of FGR (P09769 whole entry): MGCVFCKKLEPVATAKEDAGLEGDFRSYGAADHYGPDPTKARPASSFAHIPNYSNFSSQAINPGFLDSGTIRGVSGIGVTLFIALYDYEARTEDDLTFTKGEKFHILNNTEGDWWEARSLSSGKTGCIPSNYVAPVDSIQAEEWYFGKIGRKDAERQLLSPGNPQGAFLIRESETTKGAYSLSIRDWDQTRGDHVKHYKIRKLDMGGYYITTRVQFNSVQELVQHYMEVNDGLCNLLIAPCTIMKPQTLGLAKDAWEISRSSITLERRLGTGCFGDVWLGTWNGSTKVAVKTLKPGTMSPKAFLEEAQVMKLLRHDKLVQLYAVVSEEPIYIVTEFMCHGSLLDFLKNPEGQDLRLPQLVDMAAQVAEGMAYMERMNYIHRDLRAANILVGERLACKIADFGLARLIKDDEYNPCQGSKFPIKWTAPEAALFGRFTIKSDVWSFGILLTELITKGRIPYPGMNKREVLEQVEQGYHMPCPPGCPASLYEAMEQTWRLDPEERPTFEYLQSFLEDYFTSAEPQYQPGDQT

[13] = molecular target: FLT4 (VEGFR3) (Homo sapiens, UniProt P35916)
[14] = molecular target: GSK3A (GSK3 alpha) (Homo sapiens, UniProt P49840)
Chain of GSK3A (GSK3 alpha) (P49840 whole entry): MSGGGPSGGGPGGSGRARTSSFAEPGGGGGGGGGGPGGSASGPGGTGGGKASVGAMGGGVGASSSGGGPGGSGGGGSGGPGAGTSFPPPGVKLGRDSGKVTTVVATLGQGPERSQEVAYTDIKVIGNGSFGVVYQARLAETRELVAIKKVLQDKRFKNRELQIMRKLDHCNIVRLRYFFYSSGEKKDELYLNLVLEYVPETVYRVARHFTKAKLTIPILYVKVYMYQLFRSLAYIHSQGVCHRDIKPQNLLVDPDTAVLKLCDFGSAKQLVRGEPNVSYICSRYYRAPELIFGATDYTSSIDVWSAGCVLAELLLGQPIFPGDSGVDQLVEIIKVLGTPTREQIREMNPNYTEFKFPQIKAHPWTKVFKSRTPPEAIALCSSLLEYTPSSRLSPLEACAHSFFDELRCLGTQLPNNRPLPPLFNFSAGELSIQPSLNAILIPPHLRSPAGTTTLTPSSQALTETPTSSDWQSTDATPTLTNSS

[15] = molecular target: HIPK2 (Homo sapiens, UniProt Q9H2X6)
[16] = molecular target: IKBKB (IKK beta) (Homo sapiens, UniProt O14920)
Chain of IKBKB (IKK beta) (O14920 whole entry): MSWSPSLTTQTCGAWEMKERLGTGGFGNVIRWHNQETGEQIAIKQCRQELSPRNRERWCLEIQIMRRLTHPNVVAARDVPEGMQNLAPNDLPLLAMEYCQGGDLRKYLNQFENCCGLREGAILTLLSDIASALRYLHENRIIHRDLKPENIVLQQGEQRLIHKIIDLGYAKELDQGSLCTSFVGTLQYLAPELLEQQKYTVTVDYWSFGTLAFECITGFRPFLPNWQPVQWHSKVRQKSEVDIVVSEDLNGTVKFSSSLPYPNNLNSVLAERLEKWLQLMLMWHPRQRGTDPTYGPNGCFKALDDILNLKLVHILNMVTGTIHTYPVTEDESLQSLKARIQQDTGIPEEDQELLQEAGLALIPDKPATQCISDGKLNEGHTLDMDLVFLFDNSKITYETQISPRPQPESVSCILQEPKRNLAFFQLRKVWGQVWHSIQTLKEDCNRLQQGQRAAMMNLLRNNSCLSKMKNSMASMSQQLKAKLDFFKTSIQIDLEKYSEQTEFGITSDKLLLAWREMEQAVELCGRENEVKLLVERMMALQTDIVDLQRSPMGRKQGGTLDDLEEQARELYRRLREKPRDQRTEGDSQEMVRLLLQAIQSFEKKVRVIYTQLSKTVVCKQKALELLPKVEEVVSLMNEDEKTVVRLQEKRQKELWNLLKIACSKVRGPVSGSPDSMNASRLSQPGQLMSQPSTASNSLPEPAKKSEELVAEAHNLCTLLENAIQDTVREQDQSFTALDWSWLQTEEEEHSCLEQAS

[17] = molecular target: KIT V559D (Homo sapiens, UniProt P10721, V559D)
[18] = molecular target: MAP2K6 (MKK6) (Homo sapiens, UniProt P52564)
[19] = molecular target: MINK1 (Homo sapiens, UniProt Q8N4C8)
[20] = molecular target: NEK2 (Homo sapiens, UniProt P51955)
[21] = molecular target: NEK4 (Homo sapiens, UniProt P51957)
Chain of NEK4 (P51957 whole entry): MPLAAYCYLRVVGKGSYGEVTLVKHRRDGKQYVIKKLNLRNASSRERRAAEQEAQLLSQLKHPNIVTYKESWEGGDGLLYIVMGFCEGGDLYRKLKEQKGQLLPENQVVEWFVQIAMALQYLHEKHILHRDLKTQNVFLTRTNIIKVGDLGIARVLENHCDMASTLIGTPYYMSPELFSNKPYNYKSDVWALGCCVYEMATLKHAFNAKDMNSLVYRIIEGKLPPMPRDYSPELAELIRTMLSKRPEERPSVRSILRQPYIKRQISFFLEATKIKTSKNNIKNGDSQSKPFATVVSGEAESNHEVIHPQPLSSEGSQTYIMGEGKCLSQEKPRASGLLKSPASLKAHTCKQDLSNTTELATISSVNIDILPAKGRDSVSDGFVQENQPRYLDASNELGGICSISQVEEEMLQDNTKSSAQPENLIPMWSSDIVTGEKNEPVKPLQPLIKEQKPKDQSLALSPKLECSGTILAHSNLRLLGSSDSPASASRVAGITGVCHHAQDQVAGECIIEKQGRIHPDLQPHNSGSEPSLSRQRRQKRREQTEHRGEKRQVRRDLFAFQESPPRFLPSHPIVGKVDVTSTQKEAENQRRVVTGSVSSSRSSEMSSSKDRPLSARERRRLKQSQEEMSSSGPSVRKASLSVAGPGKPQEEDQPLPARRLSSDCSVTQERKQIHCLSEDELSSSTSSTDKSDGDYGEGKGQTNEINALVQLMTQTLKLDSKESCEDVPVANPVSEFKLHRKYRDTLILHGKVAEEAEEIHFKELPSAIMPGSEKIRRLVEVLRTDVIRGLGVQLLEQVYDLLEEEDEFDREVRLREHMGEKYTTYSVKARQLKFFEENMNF

[22] = molecular target: NEK9 (Homo sapiens, UniProt Q8TD19)
[23] = molecular target: PLK1 (Homo sapiens, UniProt P53350)
[24] = molecular target: PRKCD (PKC delta) (Homo sapiens, UniProt Q05655)
Chain of PRKCD (PKC delta) (Q05655 whole entry): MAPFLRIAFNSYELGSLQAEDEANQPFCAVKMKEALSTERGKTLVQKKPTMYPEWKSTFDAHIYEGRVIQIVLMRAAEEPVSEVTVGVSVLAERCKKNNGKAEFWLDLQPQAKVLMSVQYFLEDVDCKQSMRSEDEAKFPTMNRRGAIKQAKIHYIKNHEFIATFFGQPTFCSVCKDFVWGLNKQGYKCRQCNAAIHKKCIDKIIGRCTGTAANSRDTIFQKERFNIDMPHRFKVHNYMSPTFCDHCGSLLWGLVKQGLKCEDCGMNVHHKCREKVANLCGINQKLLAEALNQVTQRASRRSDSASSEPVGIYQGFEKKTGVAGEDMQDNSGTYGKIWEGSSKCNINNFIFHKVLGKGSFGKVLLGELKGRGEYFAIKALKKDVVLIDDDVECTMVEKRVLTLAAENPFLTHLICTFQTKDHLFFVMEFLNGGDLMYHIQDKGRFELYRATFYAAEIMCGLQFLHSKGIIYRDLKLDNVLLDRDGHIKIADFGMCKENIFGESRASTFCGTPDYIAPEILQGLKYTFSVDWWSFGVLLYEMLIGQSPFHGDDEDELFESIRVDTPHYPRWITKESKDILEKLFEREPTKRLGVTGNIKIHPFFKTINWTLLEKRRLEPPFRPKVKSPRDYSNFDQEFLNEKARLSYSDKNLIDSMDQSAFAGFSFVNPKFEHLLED

[25] = molecular target: RET V804E (Homo sapiens, UniProt P07949, V804E)
[26] = molecular target: SBK1 (Homo sapiens, UniProt Q52WX2)
Chain of SBK1 (Q52WX2 whole entry): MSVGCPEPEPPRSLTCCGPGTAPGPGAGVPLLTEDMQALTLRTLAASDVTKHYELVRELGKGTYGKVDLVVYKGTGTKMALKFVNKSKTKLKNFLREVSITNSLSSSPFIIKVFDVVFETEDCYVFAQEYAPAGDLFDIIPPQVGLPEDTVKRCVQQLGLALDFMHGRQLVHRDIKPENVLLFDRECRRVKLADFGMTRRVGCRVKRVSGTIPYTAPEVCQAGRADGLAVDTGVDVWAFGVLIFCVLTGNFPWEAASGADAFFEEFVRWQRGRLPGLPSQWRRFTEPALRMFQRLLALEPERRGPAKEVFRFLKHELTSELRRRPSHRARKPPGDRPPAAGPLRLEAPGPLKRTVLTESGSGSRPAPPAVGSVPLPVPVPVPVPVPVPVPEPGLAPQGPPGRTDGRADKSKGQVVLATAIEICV

[27] = molecular target: STK22D (TSSK1) (Homo sapiens, UniProt Q9BXA7)
Chain of STK22D (TSSK1) (Q9BXA7 whole entry): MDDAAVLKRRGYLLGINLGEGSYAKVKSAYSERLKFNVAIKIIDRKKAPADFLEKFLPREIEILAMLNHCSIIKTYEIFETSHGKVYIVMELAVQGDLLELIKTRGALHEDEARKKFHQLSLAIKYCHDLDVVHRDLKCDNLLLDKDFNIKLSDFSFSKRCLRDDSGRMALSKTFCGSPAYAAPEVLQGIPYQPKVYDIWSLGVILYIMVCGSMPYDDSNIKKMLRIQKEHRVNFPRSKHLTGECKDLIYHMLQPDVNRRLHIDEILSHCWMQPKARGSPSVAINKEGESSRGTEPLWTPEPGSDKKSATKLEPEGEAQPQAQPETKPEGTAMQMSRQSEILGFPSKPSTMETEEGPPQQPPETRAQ

[28] = molecular target: STK23 (MSSK1) (Homo sapiens, UniProt Q9UPE1)
[29] = molecular target: TYK2 (Homo sapiens, UniProt P29597)

Chain of CAMK2A (CaMKII alpha) (Q9UQM7 whole entry): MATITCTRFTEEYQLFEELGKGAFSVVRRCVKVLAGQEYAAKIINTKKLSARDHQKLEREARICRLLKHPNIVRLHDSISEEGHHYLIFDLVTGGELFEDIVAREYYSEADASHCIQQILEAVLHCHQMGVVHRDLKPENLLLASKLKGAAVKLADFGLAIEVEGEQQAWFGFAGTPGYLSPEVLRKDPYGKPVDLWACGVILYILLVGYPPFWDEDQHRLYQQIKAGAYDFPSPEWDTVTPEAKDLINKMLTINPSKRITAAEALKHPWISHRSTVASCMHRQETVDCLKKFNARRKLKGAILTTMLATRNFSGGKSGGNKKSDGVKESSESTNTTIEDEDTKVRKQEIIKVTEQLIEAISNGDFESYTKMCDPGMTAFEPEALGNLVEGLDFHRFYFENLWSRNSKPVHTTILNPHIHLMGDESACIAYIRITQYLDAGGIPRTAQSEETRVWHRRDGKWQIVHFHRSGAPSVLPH

Which inhibition at 1 µM [1] does the source give for `COc1ccc2nc3cc(Cl)ccc3c(Nc3cc(CN4CCCC4)c(O)c(CN4CCCC4)c3)c2n1` [Pyronaridine, 4-[(7-Chloro-2-methoxybenzo[b][1,5]naphthyridin-10-yl)amino]-2,6-bis(1-pyrrolidinylmethyl)phenol phosphate (1:4)] here?
The inhibition at 1 µM was 1%.

What about the inhibition at 1 µM [2] of the same compound?
Its inhibition at 1 µM is 11%.

What about the inhibition at 1 µM [3] of the same compound?
Its inhibition at 1 µM is 4%.

What about the inhibition at 1 µM [4] of the same compound?
The inhibition at 1 µM was 5%.

And the inhibition at 1 µM [5]?
The inhibition at 1 µM was 0%.

And the inhibition at 1 µM [6]?
Its inhibition at 1 µM is -1%.

What about the inhibition at 1 µM [7] of the same compound?
The inhibition at 1 µM was 4%.

And the inhibition at 1 µM [8]?
Its inhibition at 1 µM is 2%.

What about the inhibition at 1 µM [9] of the same compound?
Its inhibition at 1 µM is 1%.

What about the inhibition at 1 µM [10] of the same compound?
The inhibition at 1 µM was -1%.

What about the inhibition at 1 µM [11] of the same compound?
The inhibition at 1 µM was 2%.

What about the inhibition at 1 µM [12] of the same compound?
Its inhibition at 1 µM is 11%.

And the inhibition at 1 µM [13]?
The inhibition at 1 µM was 3%.

What about the inhibition at 1 µM [14] of the same compound?
Its inhibition at 1 µM is 4%.

What about the inhibition at 1 µM [15] of the same compound?
The inhibition at 1 µM was -1%.

What about the inhibition at 1 µM [16] of the same compound?
Its inhibition at 1 µM is 1%.

What about the inhibition at 1 µM [17] of the same compound?
Its inhibition at 1 µM is -1%.

What about the inhibition at 1 µM [18] of the same compound?
The inhibition at 1 µM was 3%.

And the inhibition at 1 µM [19]?
The inhibition at 1 µM was 7%.

And the inhibition at 1 µM [20]?
Its inhibition at 1 µM is -4%.

And the inhibition at 1 µM [21]?
Its inhibition at 1 µM is 4%.

And the inhibition at 1 µM [22]?
Its inhibition at 1 µM is 0%.

And the inhibition at 1 µM [23]?
The inhibition at 1 µM was 6%.

And the inhibition at 1 µM [24]?
The inhibition at 1 µM was 3%.

What about the inhibition at 1 µM [25] of the same compound?
The inhibition at 1 µM was 2%.

What about the inhibition at 1 µM [26] of the same compound?
Its inhibition at 1 µM is 6%.

And the inhibition at 1 µM [27]?
Its inhibition at 1 µM is 6%.

And the inhibition at 1 µM [28]?
The inhibition at 1 µM was -2%.

And the inhibition at 1 µM [29]?
The inhibition at 1 µM was 0%.
